Our source for the GI50 and TGI values is PubChem BioAssay (NCI).

Among the test systems are BT-549 breast; CCRF-CEM leukemia; COLO 205 colon; DU-145 prostate; EKVX NSCLC; HT29 colon; NCI-H226 lung; OVCAR-8 ovarian; SF-295 CNS; SK-MEL-5 melanoma.
Assay in all cases: inhibition of tumour cell growth, NCI panel, 48 h

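Following 48 hours of exposure in 96-well plates, responses at five concentrations were used to interpolate endpoints linearly. GI50 = concentration required for 50% inhibition of growth. TGI is the concentration that stops growth completely.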

Take `CC1(C)N=C(N)N=C(N)N1c1cccc(CCc2ccccc2)c1`: the GI50 in the experiment with BT-549 breast is 577 nM; in the experiment with CCRF-CEM leukemia, 0.566 µM; in the experiment on COLO 205 colon it was 0.574 µM; with DU-145 prostate, 552 nM; in the experiment with EKVX NSCLC it was 1.1 µM; with HT29 colon, 0.135 µM. Also, the GI50 with NCI-H226 lung was 3.42 µM; with OVCAR-8 ovarian, 634 nM; with SF-295 CNS, 0.604 µM; in the experiment on SK-MEL-5 melanoma, 0.429 µM. Besides, the TGI in the experiment with BT-549 breast is greater than 46.7 µM; in the experiment on CCRF-CEM leukemia, greater than 100 µM; with COLO 205 colon, 16.9 µM; with DU-145 prostate, greater than 100 µM; with EKVX NSCLC it was greater than 100 µM; in the experiment on HT29 colon, 18.6 µM. Also, the TGI with NCI-H226 lung is greater than 100 µM; in the experiment on OVCAR-8 ovarian, greater than 100 µM; in the experiment on SF-295 CNS, greater than 100 µM; in the experiment on SK-MEL-5 melanoma, 8.82 µM.
For `CC1(C)C2CCC13C(=O)C1OC3(C2)C2C(=O)c3c(ccc4c3ccc3ccccc34)C(=O)C12` (stereo unspecified), the GI50 in the experiment with BT-549 breast is greater than 80300 nM; in the experiment on CCRF-CEM leukemia, 21.5 µM; in the experiment with COLO 205 colon, greater than 54 µM; in the experiment with DU-145 prostate, greater than 100000 nM; in the experiment with EKVX NSCLC, greater than 66.3 µM; with HT29 colon, greater than 64.6 µM. The GI50 with NCI-H226 lung is greater than 100 µM; in the experiment on OVCAR-8 ovarian, greater than 61100 nM; with SF-295 CNS it was 13.2 µM; with SK-MEL-5 melanoma it was 54.3 µM. Also, the TGI with BT-549 breast is greater than 100 µM; with CCRF-CEM leukemia it was greater than 62.9 µM; with COLO 205 colon it was greater than 100 µM; in the experiment with DU-145 prostate, greater than 100 µM; in the experiment on EKVX NSCLC, greater than 100 µM; in the experiment with HT29 colon it was greater than 100 µM. For the same compound, the TGI is greater than 100 µM in the experiment on NCI-H226 lung, greater than 100 µM in the experiment on OVCAR-8 ovarian, 92.6 µM in the experiment on SF-295 CNS and greater than 100 µM in the experiment with SK-MEL-5 melanoma.
Turning to `Nc1ncc2ncn(C3CCC(CO)O3)c2n1` (stereo unspecified), the TGI in the experiment on BT-549 breast, in the experiment on CCRF-CEM leukemia, in the experiment on COLO 205 colon, with DU-145 prostate, in the experiment with EKVX NSCLC and in the experiment on HT29 colon was greater than 100 µM throughout. Moreover, the TGI in the experiment on NCI-H226 lung, in the experiment on OVCAR-8 ovarian, in the experiment with SF-295 CNS and with SK-MEL-5 melanoma was greater than 100 µM in each case.
With `Nn1c(-c2ccc(Cl)cc2)nc2c(-c3ccc(Cl)cc3)nc3ccc(Cl)cc3c2c1=O`, the GI50 is 14500 nM in the experiment with BT-549 breast; 19.5 µM in the experiment on COLO 205 colon; 4960 nM in the experiment with DU-145 prostate; 5.86 µM in the experiment on EKVX NSCLC; greater than 100 µM in the experiment with HT29 colon; 40.8 µM with NCI-H226 lung. In addition, the results for the GI50 with OVCAR-8 ovarian, in the experiment on SF-295 CNS and in the experiment with SK-MEL-5 melanoma were 7580 nM, 13.3 µM and 56.6 µM, respectively. The TGI with BT-549 breast was 60.2 µM; in the experiment on CCRF-CEM leukemia it was 1.11 µM; in the experiment on COLO 205 colon it was greater than 100 µM; in the experiment on DU-145 prostate it was greater than 100 µM; in the experiment with EKVX NSCLC, greater than 100 µM; in the experiment with HT29 colon, greater than 100 µM. The TGI in the experiment on NCI-H226 lung was greater than 100 µM; in the experiment with OVCAR-8 ovarian it was 95.2 µM; in the experiment with SF-295 CNS it was 34.4 µM; in the experiment on SK-MEL-5 melanoma, greater than 100 µM.
`CN1CC[C@H](c2c(O)cc(O)c3c(=O)cc(-c4ccccc4Cl)oc23)[C@H](O)C1`: the GI50 in the experiment with BT-549 breast is 80.7 nM; in the experiment with COLO 205 colon, 0.0433 µM; with DU-145 prostate, 75 nM; with NCI-H226 lung it was 0.0695 µM; in the experiment on OVCAR-8 ovarian, 72.3 nM; in the experiment with SF-295 CNS, 0.21 µM. Besides, in the experiment with SK-MEL-5 melanoma, the GI50 is 0.052 µM. Moreover, the TGI was 0.599 µM in the experiment with BT-549 breast; greater than 10 µM with CCRF-CEM leukemia; 0.209 µM in the experiment with COLO 205 colon; greater than 10 µM with DU-145 prostate; 0.559 µM with EKVX NSCLC; greater than 10 µM in the experiment on HT29 colon. Besides, the TGI is 0.46 µM with NCI-H226 lung, greater than 10 µM in the experiment with OVCAR-8 ovarian, 0.625 µM in the experiment with SF-295 CNS and 0.159 µM with SK-MEL-5 melanoma.
As for `CCOC(=O)[C@@H]1CSC(CC)=C(C(=O)O)N1`, the GI50 is greater than 100000 nM with BT-549 breast; greater than 100 µM in the experiment on CCRF-CEM leukemia; greater than 100 µM with COLO 205 colon; greater than 100000 nM in the experiment on DU-145 prostate; greater than 100 µM in the experiment on EKVX NSCLC; greater than 100 µM in the experiment with HT29 colon. The GI50 was greater than 100 µM in the experiment on NCI-H226 lung, greater than 100000 nM with OVCAR-8 ovarian, greater than 100 µM in the experiment with SF-295 CNS and greater than 100 µM in the experiment with SK-MEL-5 melanoma. Moreover, the TGI in the experiment on BT-549 breast, with CCRF-CEM leukemia, in the experiment on COLO 205 colon, with DU-145 prostate, with EKVX NSCLC and with HT29 colon was greater than 100 µM in each case. Further, the TGI with NCI-H226 lung, in the experiment with OVCAR-8 ovarian, in the experiment on SF-295 CNS and in the experiment with SK-MEL-5 melanoma was greater than 100 µM each time.
Regarding `Cc1cc(S(N)(=O)=O)c(S/C(=N\NS(=O)(=O)c2ccccc2)c2ccc(Cl)cc2)cc1Cl`, the GI50 in the experiment with BT-549 breast was greater than 100000 nM; with CCRF-CEM leukemia, 99.7 µM; in the experiment with COLO 205 colon it was 97.8 µM; in the experiment with DU-145 prostate, greater than 100000 nM; in the experiment on EKVX NSCLC, greater than 100 µM; with HT29 colon, greater than 100 µM. In addition, the GI50 is greater than 100 µM with NCI-H226 lung, greater than 100000 nM in the experiment with OVCAR-8 ovarian, 22.5 µM in the experiment with SF-295 CNS and 67.9 µM with SK-MEL-5 melanoma. For the same compound, the TGI in the experiment with BT-549 breast, in the experiment on CCRF-CEM leukemia, in the experiment on COLO 205 colon, in the experiment with DU-145 prostate, with EKVX NSCLC and with HT29 colon was greater than 100 µM throughout. For the same compound, the TGI in the experiment with NCI-H226 lung, with OVCAR-8 ovarian, in the experiment with SF-295 CNS and in the experiment on SK-MEL-5 melanoma was greater than 100 µM throughout.
With `C=CC(=O)Nc1cc2c(Nc3ccc(F)c(Cl)c3)ncnc2cc1C#CC(C)(C)N1CCN(C)CC1`, the GI50 in the experiment on BT-549 breast is 1600 nM; in the experiment on CCRF-CEM leukemia, 1.24 µM; in the experiment with COLO 205 colon, 2.09 µM; in the experiment on DU-145 prostate it was 1110 nM; with EKVX NSCLC it was 0.246 µM; in the experiment with HT29 colon it was 1.56 µM. The GI50 in the experiment on NCI-H226 lung was 4.06 µM; with OVCAR-8 ovarian it was 1850 nM; in the experiment with SF-295 CNS, 2.94 µM; in the experiment on SK-MEL-5 melanoma, 4.69 µM. The TGI with BT-549 breast was 3.47 µM; in the experiment with CCRF-CEM leukemia it was 5.08 µM; with COLO 205 colon it was 5.43 µM; with DU-145 prostate, 4.86 µM; in the experiment on EKVX NSCLC, 4.39 µM; in the experiment with HT29 colon, 4.09 µM. The TGI in the experiment with NCI-H226 lung is 6.04 µM; in the experiment on OVCAR-8 ovarian, 5.35 µM; in the experiment with SF-295 CNS it was 6.62 µM; in the experiment on SK-MEL-5 melanoma, 7.42 µM.
